Measured values as given in patent publication US20260240869A1, “ANTIPSEUDOMONAL FUSIDIC ACID COMPOUNDS” (priority 2022, published 2026).

Tested on: P. aeruginosa PAO1
Assay: LC-MS/MS whole-cell accumulation assay, P. aeruginosa PAO1
Type: cell-based, Pseudomonas aeruginosa
Conditions: for PA Accumulation (FA): P. aeruginosa PAO1, accumulation of FA reported (Table 8)
Description: Accumulation Assay. The accumulation assay was performed in triplicate in batches of ten samples, with each batch containing tetracycline or ciprofloxacin as a positive control. P. aeruginosa PAO1, PAO1 A6, PA14, PA14 A40, and PA1280, and E. coli MG1655 were used in these experiments. For each replicate, 2.5 mL (E. coli) or 5 mL (P. aeruginosa) of an overnight culture was diluted into 250 mL of fresh Luria-Bertani broth (Lennox) or Tryptic Soy Broth (TSB) and grown at 37° C. with shaking to an optical density (OD600) of 0.55-0.60. The bacteria were pelleted at 3220 r.c.f. for 10 min at 4° C., and the supernatant was discarded. The pellets were resuspended in 40 mL of phosphate buffered saline (PBS) and pelleted as before, and the supernatant was discarded. The pellets were resuspended in 8.8 mL of fresh PBS and aliquoted into ten, 1.5 mL Eppendorf tubes (875 μL each). The number of colony-forming units (CFUs) was determined by a calibration curve. The samples were equilibrated at 37° C. with shaking for 5 min; compound was added (final concentration=50 μM), and then the samples were incubated at 37° C. with shaking for either 10 min. These time points were short enough to minimize metabolic and growth changes (no changes in OD600 or CFU count observed). After incubation, 800 μL of the cultures was carefully layered on 700 μL of silicone oil (9:1 AR20/Sigma High Temperature, cooled to −78° C.). Bacteria were pelleted through the oil by centrifuging at 13 000 r.c.f. for 2 min at room temperature (with the supernatant remaining above the oil); the supernatant and oil were then removed by pipetting. To lyse the samples, each pellet was dissolved in […] of water, and then, they were subjected to three (E. coli) or four (P. aeruginosa) freeze-thaw cycles of 3 min in liquid nitrogen followed by 3 min in a water bath at 65° C. P. aeruginosa samples were then treated with 50 µM DNase and RNase and incubated at 37° C. for 15 minutes. The lysates were pelleted at 13 000 r.c.f. for 2 min at room temperature, and the supernatant was collected ([…]). The debris was resuspended in 100 μL of methanol and pelleted as before. The supernatants were removed and combined with the previous supernatants collected. Finally, the remaining debris was removed by centrifuging at 20 000 r.c.f. for 10 min at room temperature. Supernatants were analyzed by LC-MS/MS.
Samples were analyzed with the 5500 QTRAP LC/MS/MS system (AB Sciex) with a 1200 series HPLC system (Agilent Technologies) including a degasser, an autosampler, and a binary pump. Liquid chromatography separation was performed on an Agilent SB-Aq column (4.6×50 mm, 5 μm) (Agilent Technologies) with mobile phase A (0.1% formic acid in water) and mobile phase B (0.1% formic acid in acetonitrile). The flow rate was 0.3 mL/min. The linear gradient was as follows: 0-3 min, 100% mobile phase A; 10-15 min, 2% mobile phase A; 15.5-21 min, 100% mobile phase A. The autosampler was set at 5° C. The injection volume was 15 μL. Mass spectra were acquired with both positive electrospray ionization at the ion spray voltage of 5500 V and negative electrospray ionization at the ion spray voltage of −4500 V. The source temperature was 450° C. The curtain gas, ion source gas 1, and ion source gas 2 were 33, 50, and 65, respectively. Multiple reaction monitoring was used to quantify the metabolites. Power analysis was not used to determine the number of replicates. Error bars represent the standard error of the mean of three biological replicates. The statistical significance of the accumulation was determined using a two sample Welch's t test (one-tailed test, assuming unequal variance) relative to the negative controls. All compounds evaluated in the biological assays were >95% pure.
MBN assay. Assays measuring permeabilization by polymyxin B nonapeptide (PMBN) were performed as above, with the addition of 8 μg/mL PMBN immediately before the compound of interest was added.

Structure (SMILES)	PA Accumulation (FA)	accumulation in PAO1 (in words) (FIG. 1a / FIG. 5)	change of accumulation upon membrane permeabilization (treatment with PMBN, FIG. 1b)
CC(=O)O[C@H]1C[C@@]2(C)[C@@H](C[C@@H](O)[C@H]3[C@@]4(C)CC[C@@H](O)[C@@H](C)[C@@H]4CC[C@@]32C)/C1=C(\CCC=C(C)C)C(=O)O/N=C(\N)CNCCCNCCCNCCCN [FA prodrug, (3R, 4S,5S,8S,9S,10S,11R,13R,14S,16S,Z)-17-((Z)-1,14-diamino-22-methyl-17-oxo-16-oxa-4,8,12,15-tetraazatricosa-14,21-dien-18-ylidene)-3,11-dihydroxy-4,8,10,14-tetramethylhexadecahydro-1H-cyclopenta[a]phenanthren-16-yl acetate]	3396 ± 122 nmol/1012 CFUs		
CC(=O)O[C@H]1C[C@@]2(C)[C@@H](C[C@@H](O)[C@H]3[C@@]4(C)CC[C@@H](O)[C@@H](C)[C@@H]4CC[C@@]32C)/C1=C(\CCC=C(C)C)C(=O)O [FA, Fusidic acid]	80 ± 7 nmol/1012 CFUs	does not accumulate	significant increase in accumulation
